According to ChEMBL document CHEMBL1201862, “PubChem BioAssay data set” (2004):
Activity calls are given as the source filed them.

Experiments:
[1] = molecular target: Protein disulfide-isomerase (Homo sapiens, UniProt P07237); assay: PDI inhibitors, insulin aggregation turbidity, dose response, biochemical, absorbance, cherry-picked samples (AID 602350); format: functional
[2] = molecular target: Cell division cycle 7-related protein kinase (Homo sapiens, UniProt O00311); format: functional;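 note: value obtained from a kinome-wide kinase panel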
Cell division cycle 7-related protein kinase, sequence (O00311 whole entry): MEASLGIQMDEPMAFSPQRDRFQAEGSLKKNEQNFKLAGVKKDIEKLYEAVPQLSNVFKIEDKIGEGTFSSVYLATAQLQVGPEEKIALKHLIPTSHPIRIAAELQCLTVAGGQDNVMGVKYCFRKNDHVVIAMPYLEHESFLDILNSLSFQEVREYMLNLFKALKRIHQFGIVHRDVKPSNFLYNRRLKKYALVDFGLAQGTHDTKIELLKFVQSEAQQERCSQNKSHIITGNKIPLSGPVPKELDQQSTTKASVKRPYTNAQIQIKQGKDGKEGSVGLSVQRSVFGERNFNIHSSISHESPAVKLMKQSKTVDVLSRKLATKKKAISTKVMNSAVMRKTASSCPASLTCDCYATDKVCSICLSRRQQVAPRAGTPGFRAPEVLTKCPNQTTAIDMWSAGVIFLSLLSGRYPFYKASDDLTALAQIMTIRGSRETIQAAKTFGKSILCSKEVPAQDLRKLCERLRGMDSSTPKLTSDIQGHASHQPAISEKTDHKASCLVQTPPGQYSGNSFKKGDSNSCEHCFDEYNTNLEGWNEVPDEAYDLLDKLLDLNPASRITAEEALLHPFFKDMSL

[3] = molecular target: Cyclin-dependent kinase 19 (Homo sapiens, UniProt Q9BWU1); assay: Navigating the Kinome. Panel member name: CDC2L6; format: functional
Cyclin-dependent kinase 19, sequence (Q9BWU1 whole entry): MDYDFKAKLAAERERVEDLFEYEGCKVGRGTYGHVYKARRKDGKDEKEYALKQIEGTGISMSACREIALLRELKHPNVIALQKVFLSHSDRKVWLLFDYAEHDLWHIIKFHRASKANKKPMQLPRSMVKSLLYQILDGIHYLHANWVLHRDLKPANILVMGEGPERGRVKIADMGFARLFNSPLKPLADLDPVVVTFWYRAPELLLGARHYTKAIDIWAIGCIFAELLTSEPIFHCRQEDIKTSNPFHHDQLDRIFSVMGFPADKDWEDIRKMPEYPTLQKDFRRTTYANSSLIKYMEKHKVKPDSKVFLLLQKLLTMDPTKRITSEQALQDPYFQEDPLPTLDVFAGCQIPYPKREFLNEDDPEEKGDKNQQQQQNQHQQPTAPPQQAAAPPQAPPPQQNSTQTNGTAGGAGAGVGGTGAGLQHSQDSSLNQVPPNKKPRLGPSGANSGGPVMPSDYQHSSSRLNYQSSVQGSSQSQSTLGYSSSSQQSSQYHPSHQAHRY

[4] = molecular target: Sphingosine 1-phosphate receptor 2 (Homo sapiens, UniProt O95136); assay: Late-stage fluorescence-based dose-response cell-based counterscreen assay to identify agonists of the Sphingosine 1-Phosphate Receptor 3 (S1P3): Sphingosine 1-Phosphate Receptor 2 (S1P2) agonist assay.; format: functional
Sphingosine 1-phosphate receptor 2, sequence (O95136 whole entry): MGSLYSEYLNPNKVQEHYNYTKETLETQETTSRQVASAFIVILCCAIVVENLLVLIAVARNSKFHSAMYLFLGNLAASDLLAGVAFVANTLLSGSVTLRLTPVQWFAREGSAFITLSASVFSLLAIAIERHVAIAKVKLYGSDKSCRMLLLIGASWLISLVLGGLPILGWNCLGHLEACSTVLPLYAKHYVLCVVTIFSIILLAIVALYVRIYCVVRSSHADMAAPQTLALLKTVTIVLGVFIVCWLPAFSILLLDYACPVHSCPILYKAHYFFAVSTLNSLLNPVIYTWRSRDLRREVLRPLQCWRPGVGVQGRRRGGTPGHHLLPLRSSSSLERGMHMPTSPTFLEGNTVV

[5] = molecular target: T1, Sphingosine 1-phosphate receptor 4 (Homo sapiens, UniProt O95977); assay: Late-stage fluorescence-based dose-response cell-based counterscreen assay to identify agonists of the Sphingosine 1-Phosphate Receptor 3 (S1P3): Sphingosine 1-Phosphate Receptor 4 (S1P4) agonist assay.; format: functional
T1 sequence (O95977 whole entry): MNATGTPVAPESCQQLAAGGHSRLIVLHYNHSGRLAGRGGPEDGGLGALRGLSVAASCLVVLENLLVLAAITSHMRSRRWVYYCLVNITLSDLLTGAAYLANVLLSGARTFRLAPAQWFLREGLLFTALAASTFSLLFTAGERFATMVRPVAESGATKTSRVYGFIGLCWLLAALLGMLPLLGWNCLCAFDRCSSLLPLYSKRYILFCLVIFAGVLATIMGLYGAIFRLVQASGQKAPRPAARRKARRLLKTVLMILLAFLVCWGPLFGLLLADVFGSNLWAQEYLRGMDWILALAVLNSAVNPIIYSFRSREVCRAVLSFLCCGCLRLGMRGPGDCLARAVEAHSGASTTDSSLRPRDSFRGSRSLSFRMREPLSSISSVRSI

Saccharomyces cerevisiae = assay: NALP1 inhibitor project selectivity study, Caspase-1/ASC signal blockade IC50 in S. cerevisiae (AID 488863); format: functional, organism-based
[6] = molecular target: T2, NACHT, LRR and PYD domains-containing protein 1 (Homo sapiens, UniProt Q9C000); assay: NALP1 inhibitors in yeast, dose response, luminescent (AID 488860); format: functional
T2 sequence (Q9C000 whole entry): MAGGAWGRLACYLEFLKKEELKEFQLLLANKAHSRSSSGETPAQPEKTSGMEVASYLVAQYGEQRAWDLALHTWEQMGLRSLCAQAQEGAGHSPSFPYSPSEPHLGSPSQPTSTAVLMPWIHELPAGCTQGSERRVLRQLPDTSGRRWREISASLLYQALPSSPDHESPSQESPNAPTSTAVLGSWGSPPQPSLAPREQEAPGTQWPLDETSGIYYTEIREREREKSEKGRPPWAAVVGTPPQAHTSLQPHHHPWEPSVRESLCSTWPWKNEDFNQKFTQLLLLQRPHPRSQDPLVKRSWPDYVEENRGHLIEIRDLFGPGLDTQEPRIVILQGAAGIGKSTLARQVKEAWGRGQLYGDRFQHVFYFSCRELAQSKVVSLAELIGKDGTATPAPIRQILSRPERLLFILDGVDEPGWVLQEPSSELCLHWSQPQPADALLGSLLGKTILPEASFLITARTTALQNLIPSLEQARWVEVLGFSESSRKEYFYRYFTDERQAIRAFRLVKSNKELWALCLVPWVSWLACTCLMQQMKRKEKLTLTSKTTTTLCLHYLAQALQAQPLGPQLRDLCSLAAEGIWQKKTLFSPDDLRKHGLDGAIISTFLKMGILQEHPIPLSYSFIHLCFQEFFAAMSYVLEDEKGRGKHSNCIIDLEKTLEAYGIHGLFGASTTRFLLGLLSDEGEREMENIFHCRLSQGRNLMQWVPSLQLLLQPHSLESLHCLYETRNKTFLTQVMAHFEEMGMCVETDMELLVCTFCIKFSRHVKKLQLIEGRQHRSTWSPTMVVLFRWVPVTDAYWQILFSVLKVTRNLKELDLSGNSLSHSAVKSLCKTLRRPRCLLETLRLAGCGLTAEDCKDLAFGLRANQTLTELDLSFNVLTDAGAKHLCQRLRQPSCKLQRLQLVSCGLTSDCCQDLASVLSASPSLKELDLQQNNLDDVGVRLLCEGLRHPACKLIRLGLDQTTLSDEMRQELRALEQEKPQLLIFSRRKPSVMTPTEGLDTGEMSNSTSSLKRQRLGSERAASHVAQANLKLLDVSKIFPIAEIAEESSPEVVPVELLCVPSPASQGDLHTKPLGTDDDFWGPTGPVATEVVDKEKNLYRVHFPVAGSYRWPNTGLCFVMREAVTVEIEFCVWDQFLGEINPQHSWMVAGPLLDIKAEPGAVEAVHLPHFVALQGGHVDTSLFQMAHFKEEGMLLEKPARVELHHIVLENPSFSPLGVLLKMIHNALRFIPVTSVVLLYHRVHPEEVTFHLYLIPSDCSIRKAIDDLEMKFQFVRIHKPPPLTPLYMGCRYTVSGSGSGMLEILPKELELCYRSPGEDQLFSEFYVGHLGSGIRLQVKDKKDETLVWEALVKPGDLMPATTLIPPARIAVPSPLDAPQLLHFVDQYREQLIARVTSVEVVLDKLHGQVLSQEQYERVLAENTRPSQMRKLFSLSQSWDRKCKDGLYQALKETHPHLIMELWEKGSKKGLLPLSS

[7] = molecular target: T3, Replicative DNA helicase DnaB (Mycobacterium tuberculosis, UniProt P9WMR3); assay: DnaB intein splicing inhibitors, dose response, biochemical, cell-free fluorescence (AID 449749); format: functional
T3 sequence (P9WMR3 whole entry): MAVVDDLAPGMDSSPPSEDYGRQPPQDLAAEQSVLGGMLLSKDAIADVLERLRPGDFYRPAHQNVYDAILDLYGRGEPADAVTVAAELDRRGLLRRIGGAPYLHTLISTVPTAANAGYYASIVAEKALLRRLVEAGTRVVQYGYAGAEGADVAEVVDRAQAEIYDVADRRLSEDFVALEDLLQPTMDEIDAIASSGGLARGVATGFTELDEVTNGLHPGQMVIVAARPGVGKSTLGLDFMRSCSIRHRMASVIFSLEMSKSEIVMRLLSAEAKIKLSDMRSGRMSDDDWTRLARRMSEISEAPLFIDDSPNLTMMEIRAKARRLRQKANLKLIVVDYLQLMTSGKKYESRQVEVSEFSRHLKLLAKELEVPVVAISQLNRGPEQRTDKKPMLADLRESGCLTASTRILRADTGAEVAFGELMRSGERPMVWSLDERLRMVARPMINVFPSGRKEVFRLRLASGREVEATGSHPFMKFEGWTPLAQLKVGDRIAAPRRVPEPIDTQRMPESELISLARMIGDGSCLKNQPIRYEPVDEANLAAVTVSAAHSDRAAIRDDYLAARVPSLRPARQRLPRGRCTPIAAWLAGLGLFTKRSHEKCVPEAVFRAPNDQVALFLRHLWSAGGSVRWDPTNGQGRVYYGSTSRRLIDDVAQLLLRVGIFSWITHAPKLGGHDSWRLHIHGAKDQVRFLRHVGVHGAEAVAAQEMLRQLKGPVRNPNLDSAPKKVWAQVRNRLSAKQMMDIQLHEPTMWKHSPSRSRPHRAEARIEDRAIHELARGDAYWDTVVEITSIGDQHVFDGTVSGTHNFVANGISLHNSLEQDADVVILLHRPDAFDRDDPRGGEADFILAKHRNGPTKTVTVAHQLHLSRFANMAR

Protein RecA = molecular target: T4, Protein RecA (Mycobacterium tuberculosis, UniProt P9WHJ3); assay: Fluorescence Cell-Free Homogeneous Dose Retest to Identify Inhibitors of RecA-Intein Splicing Activity. [Related pubchem assays (depositor defined):AID2097, AID2223, AID489010, AID492950]; format: functional
T4 sequence (P9WHJ3 whole entry): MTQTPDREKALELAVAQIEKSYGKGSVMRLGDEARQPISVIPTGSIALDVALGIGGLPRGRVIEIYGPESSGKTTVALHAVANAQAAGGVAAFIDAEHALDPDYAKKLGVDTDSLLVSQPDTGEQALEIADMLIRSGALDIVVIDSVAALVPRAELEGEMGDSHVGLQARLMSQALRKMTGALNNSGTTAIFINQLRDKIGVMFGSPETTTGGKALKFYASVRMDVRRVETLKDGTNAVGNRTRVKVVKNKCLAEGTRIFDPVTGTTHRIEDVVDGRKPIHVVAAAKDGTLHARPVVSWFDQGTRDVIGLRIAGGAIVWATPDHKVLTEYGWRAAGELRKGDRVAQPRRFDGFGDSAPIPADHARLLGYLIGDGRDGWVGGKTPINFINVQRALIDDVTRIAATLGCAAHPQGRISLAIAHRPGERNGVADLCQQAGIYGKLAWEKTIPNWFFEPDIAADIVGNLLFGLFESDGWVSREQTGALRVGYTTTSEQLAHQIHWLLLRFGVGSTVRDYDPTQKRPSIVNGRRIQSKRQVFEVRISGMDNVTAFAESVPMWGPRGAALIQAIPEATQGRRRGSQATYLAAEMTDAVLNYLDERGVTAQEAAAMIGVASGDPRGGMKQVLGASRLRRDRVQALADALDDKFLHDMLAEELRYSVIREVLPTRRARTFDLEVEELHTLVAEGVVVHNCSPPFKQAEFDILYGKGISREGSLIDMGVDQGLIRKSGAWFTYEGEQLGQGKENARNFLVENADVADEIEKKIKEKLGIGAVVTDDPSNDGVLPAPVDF

[8] = viability loss in Mcl1-dependent HMC-1-8 cells, dose response, selectivity assay for A1 inhibitor project, cell-based, luminescence, dry powder (AID 504415); format: functional; details: Homo sapiens
[9] = molecular target: DNA dC->dU-editing enzyme APOBEC-3G (Homo sapiens, UniProt Q9HC16); assay: APOBEC3G deaminase inhibitors, SAR follow-up, biochemical, fluorescence, single-stranded DNA substrate (AID 602136); format: functional; details: read-out: IC50_Mean
DNA dC->dU-editing enzyme APOBEC-3G, sequence (Q9HC16 whole entry): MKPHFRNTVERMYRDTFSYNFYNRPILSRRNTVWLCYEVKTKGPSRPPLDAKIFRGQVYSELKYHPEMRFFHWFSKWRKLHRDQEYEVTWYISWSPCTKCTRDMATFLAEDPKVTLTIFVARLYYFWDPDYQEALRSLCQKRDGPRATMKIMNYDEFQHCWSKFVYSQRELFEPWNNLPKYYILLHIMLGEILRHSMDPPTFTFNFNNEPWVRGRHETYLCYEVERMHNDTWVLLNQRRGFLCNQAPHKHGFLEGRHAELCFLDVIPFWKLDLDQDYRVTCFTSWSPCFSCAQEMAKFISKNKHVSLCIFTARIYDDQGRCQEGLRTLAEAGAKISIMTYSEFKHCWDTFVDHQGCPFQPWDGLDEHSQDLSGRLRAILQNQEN

[10] = molecular target: DNA dC->dU-editing enzyme APOBEC-3A (Homo sapiens, UniProt P31941); assay: SAR analysis of small molecule inhibitors of APOBEC3A DNA Deaminase via a fluorescence-based single-stranded DNA deaminase assay.; format: functional; details: read-out: IC50_Mean
DNA dC->dU-editing enzyme APOBEC-3A, sequence (P31941 whole entry): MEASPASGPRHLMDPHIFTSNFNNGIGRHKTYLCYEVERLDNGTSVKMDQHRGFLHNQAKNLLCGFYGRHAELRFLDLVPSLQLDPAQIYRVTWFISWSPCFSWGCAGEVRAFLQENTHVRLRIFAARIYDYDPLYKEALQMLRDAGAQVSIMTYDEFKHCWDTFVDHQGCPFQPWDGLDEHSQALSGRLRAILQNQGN

Protein disulfide-isomerase, sequence (P07237 whole entry): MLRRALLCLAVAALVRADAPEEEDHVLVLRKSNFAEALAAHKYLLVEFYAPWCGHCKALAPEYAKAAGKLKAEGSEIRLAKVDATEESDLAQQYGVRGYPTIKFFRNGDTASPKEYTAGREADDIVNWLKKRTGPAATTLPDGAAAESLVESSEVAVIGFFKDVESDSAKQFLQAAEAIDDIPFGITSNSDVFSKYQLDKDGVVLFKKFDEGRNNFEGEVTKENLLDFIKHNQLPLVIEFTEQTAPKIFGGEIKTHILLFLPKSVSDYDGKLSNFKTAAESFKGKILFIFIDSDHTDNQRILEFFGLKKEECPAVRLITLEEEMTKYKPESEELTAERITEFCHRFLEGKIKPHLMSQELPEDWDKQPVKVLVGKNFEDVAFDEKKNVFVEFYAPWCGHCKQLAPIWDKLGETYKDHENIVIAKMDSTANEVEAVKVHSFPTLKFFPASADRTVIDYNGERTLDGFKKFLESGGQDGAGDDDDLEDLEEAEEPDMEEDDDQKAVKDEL

For `Cc1ccc2nc(N3CCN(Cc4nnnn4C4CCCC4)CC3)c(C#N)cc2c1`, the AC50 [1] was 4.05 µM (active).

In the case of `O=c1nc(-c2ccccc2)cc(-c2ccncc2)[nH]1`, the Ki [2] is reported as 0.158 µM (active) and the Ki [3] is reported as > 100 µM (inactive).

In the case of `O=C(c1noc2ccccc12)N(C1CCCCC1)C1CCCCC1`, the EC50 [4] is reported as > 50 µM (inactive) and the EC50 [5] is reported as > 50 µM (inactive).

For `Cn1c(=O)c([N+](=O)[O-])c(-n2cnc3ccccc32)c2ccccc21`, the IC50 (Saccharomyces cerevisiae) was 72.3 µM (active), the IC50 [6] was > 100 µM (inactive) and the AC50 [7] was 8.12 µM (active). For the same compound, the EC50 (Protein RecA) was 7.26 µM (active) and the AC50 [8] was 69.6 µM (active).

For `Nc1nc2sc3c(c2c2nnc(SCc4ccc(Cl)cc4)n12)CCCC3`, the IC50 [9] was > 99 µM (inactive) and the IC50 [10] was > 99 µM (inactive).
